According to US6355799B1, “Substituted benzene compounds, process for their preparation, and herbicidal and defoliant compositions containing them” (ISK Americas Incorporated, priority 1997, dated 2002):

What was measured:
Format in all cases: in vivo
[1] = test system: velvetleaf (Abutilon theophrasti, ABUTH); experiment: Pre-emerge test, greenhouse herbicide activity screening; settings: rating scale 0-100, 14 days after application
Method in brief: (§1)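 Applied at 15–1000 g ai/ha from acetone in 187 l/ha spray volume. Post-emergence applications included 0.25% v/v non-ionic surfactant and reached plants sown 8–21 days before. Pre-emergence applications were incorporated by surface watering. Efficacy or crop damage was rated on a 0–100 scale after 14 days.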

[2] = test system: large crabgrass (Digitaria sanguinalis, DIGSA); experiment: as above; settings: rating scale 0-100, 14 days after application
Method in brief: as §1

[3] = test system: johnsongrass (Sorghum halepense, SORHA); experiment: as above; settings: rating scale 0-100, 14 days after application
Method in brief: as §1

[4] = test system: barnyardgrass (Echinochloa crus-galli, ECHCG); experiment: as above; settings: rating scale 0-100, 14 days after application
Method in brief: as §1

[5] = test system: common ragweed (Ambrosia artemisizfolia L., AMBEL); experiment: as above; settings: rating scale 0-100, 14 days after application
Method in brief: as §1

[6] = test system: lambsquarters (Chenopodium album, CHEAL); experiment: as above; settings: rating scale 0-100, 14 days after application
Method in brief: as §1

[7] = test system: ivyleaf morningglory (Ipomoea hederacea, IPOHE); experiment: as above; settings: rating scale 0-100, 14 days after application
Method in brief: as §1

[8] = test system: green foxtail (Setaria viridis, SETVI); experiment: as above; settings: rating scale 0-100, 14 days after application
Method in brief: as §1

[9] = test system: sicklepod (Cassia obtusifolia, CASOB); experiment: as above; settings: rating scale 0-100, 14 days after application
Method in brief: as §1

[10] = test system: upland rice (Oryza sp., var. Tebonnet, RICE); experiment: Post-emerge test, crop safety; settings: rating scale 0-100 (0 no damage, 100 complete death), 14 days after application
Method in brief: as §1

[11] = test system: field corn (Zea mays L., var. Dekalb 535, CORN); experiment: Post-emerge test, crop safety; settings: rating scale 0-100 (0 no damage, 100 complete death), 14 days after application
Method in brief: as §1

[12] = test system: velvetleaf (Abutilon theophrasti, ABUTH); experiment: Post-emerge test, greenhouse herbicide activity screening; settings: rating scale 0-100 (0 no damage, 100 complete death), 14 days after application
Method in brief: (§2)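 Fourteen days after spraying, crop and weed injury was graded visually from 0, no effect, to 100, every plant dead. Test substances were dissolved in acetone and applied at 15–1000 g ai/ha with a flat-fan nozzle. Application was either pre-emergence, one day after sowing, or post-emergence at the 2–3 leaf stage.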

[13] = test system: large crabgrass (Digitaria sanguinalis, DIGSA); experiment: as above; settings: rating scale 0-100 (0 no damage, 100 complete death), 14 days after application
Method in brief: as §2

[14] = test system: johnsongrass (Sorghum halepense, SORHA); experiment: as above; settings: rating scale 0-100 (0 no damage, 100 complete death), 14 days after application
Method in brief: as §2

[15] = test system: barnyardgrass (Echinochloa crus-galli, ECHCG); experiment: as above; settings: rating scale 0-100 (0 no damage, 100 complete death), 14 days after application
Method in brief: as §2

[16] = test system: lambsquarters (Chenopodium album, CHEAL); experiment: as above; settings: rating scale 0-100 (0 no damage, 100 complete death), 14 days after application
Method in brief: as §2

[17] = test system: ivyleaf morningglory (Ipomoea hederacea, IPOHE); experiment: as above; settings: rating scale 0-100 (0 no damage, 100 complete death), 14 days after application
Method in brief: as §2

[18] = test system: green foxtail (Setaria viridis, SETVI); experiment: as above; settings: rating scale 0-100 (0 no damage, 100 complete death), 14 days after application
Method in brief: as §2

[19] = test system: sicklepod (Cassia obtusifolia, CASOB); experiment: as above; settings: rating scale 0-100 (0 no damage, 100 complete death), 14 days after application
Method in brief: as §2

[20] = test system: redroot pigweed (Amaranthus retroflexus, AMARE); experiment: as above; settings: rating scale 0-100 (0 no damage, 100 complete death), 14 days after application
Method in brief: as §2

[21] = test system: upland rice (Oryza sp., var. Tebonnet, RICE); experiment: Pre-emerge test, crop safety; settings: rating scale 0-100, 14 days after application
Method in brief: (§3)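 Compounds in acetone were track-sprayed at 187 l/ha, 15–1000 g ai/ha, onto sandy loam pots. Pre-emerge seeds were sown one day before spraying, with surface watering afterwards. Post-emerge plants were at the 2–3 leaf stage and sprayed with 0.25% v/v non-ionic surfactant. Injury was rated 0–100 at 14 days.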

[22] = test system: field corn (Zea mays L., var. Dekalb 535, CORN); experiment: Pre-emerge test, crop safety; settings: rating scale 0-100, 14 days after application
Method in brief: as §3

[23] = test system: redroot pigweed (Amaranthus retroflexus, AMARE); experiment: Pre-emerge test, greenhouse herbicide activity screening; settings: rating scale 0-100, 14 days after application
Method in brief: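 Plants grown in 10 cm pots of sandy loam mix received acetone-dissolved compounds through a moving flat-fan nozzle. Doses ranged from 15 to 1000 g ai/ha. Pre-emerge pots were seeded one day earlier, post-emerge pots 8–21 days earlier. Fourteen days on, each pot was graded 0–100 for damage.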

## C=CCOC(=O)C(C)(Cl)Cc1c(OC)c(Cl)cc(F)c1-n1c(=O)cc(C(F)(F)F)n(C)c1=O (centres unmarked) [14-43]
[1]; 63 g ai/ha
  Pre-emerge herbicidal activity, phytotoxicity rating ABUTH: 90
[1]; 250 g ai/ha
  Pre-emerge herbicidal activity, phytotoxicity rating ABUTH: 100
[2]; 63 g ai/ha
  Pre-emerge herbicidal activity, phytotoxicity rating DIGSA: 80
[2]; 250 g ai/ha
  Pre-emerge herbicidal activity, phytotoxicity rating DIGSA: 100
[3]; 63 g ai/ha
  Pre-emerge herbicidal activity, phytotoxicity rating SORHA: 20
[3]; 250 g ai/ha
  Pre-emerge herbicidal activity, phytotoxicity rating SORHA: 30
[4]; 63 g ai/ha
  Pre-emerge herbicidal activity, phytotoxicity rating ECHCG: 0
[4]; 250 g ai/ha
  Pre-emerge herbicidal activity, phytotoxicity rating ECHCG: 80
[5]; 63 g ai/ha
  Pre-emerge herbicidal activity, phytotoxicity rating AMBEL: 0
[5]; 250 g ai/ha
  Pre-emerge herbicidal activity, phytotoxicity rating AMBEL: 100
[6]; 63 g ai/ha
  Pre-emerge herbicidal activity, phytotoxicity rating CHEAL: 100
[6]; 250 g ai/ha
  Pre-emerge herbicidal activity, phytotoxicity rating CHEAL: 100
[7]; 63 g ai/ha
  Pre-emerge herbicidal activity, phytotoxicity rating IPOHE: 0
[7]; 250 g ai/ha
  Pre-emerge herbicidal activity, phytotoxicity rating IPOHE: 0
[8]; 63 g ai/ha
  Pre-emerge herbicidal activity, phytotoxicity rating SETVI: 30
[8]; 250 g ai/ha
  Pre-emerge herbicidal activity, phytotoxicity rating SETVI: 95
[9]; 63 g ai/ha
  Pre-emerge herbicidal activity, phytotoxicity rating CASOB: 0
[9]; 250 g ai/ha
  Pre-emerge herbicidal activity, phytotoxicity rating CASOB: 0
[10]; Rate 63 g ai/ha
  Post-emerge phytotoxicity rating RICE (crop damage): 95
[10]; Rate 250 g ai/ha
  Post-emerge phytotoxicity rating RICE (crop damage): 100
[11]; Rate 63 g ai/ha
  Post-emerge phytotoxicity rating CORN (crop damage): 95
[11]; Rate 250 g ai/ha
  Post-emerge phytotoxicity rating CORN (crop damage): 100
[12]; Rate 63 g ai/ha
  Post-emerge Herbicidal Activity, phytotoxicity rating ABUTH: 100
[12]; Rate 250 g ai/ha
  Post-emerge Herbicidal Activity, phytotoxicity rating ABUTH: 100
[13]; Rate 63 g ai/ha
  Post-emerge Herbicidal Activity, phytotoxicity rating DIGSA: 80
[13]; Rate 250 g ai/ha
  Post-emerge Herbicidal Activity, phytotoxicity rating DIGSA: 100
[14]; Rate 63 g ai/ha
  Post-emerge Herbicidal Activity, phytotoxicity rating SORHA: 80
[14]; Rate 250 g ai/ha
  Post-emerge Herbicidal Activity, phytotoxicity rating SORHA: 95
[15]; Rate 63 g ai/ha
  Post-emerge Herbicidal Activity, phytotoxicity rating ECHCG: 100
[15]; Rate 250 g ai/ha
  Post-emerge Herbicidal Activity, phytotoxicity rating ECHCG: 100
[16]; Rate 63 g ai/ha
  Post-emerge Herbicidal Activity, phytotoxicity rating CHEAL: 100
[16]; Rate 250 g ai/ha
  Post-emerge Herbicidal Activity, phytotoxicity rating CHEAL: 100
[17]; Rate 63 g ai/ha
  Post-emerge Herbicidal Activity, phytotoxicity rating IPOHE: 95
[17]; Rate 250 g ai/ha
  Post-emerge Herbicidal Activity, phytotoxicity rating IPOHE: 100
[18]; Rate 63 g ai/ha
  Post-emerge Herbicidal Activity, phytotoxicity rating SETVI: 90
[18]; Rate 250 g ai/ha
  Post-emerge Herbicidal Activity, phytotoxicity rating SETVI: 100
[19]; Rate 63 g ai/ha
  Post-emerge Herbicidal Activity, phytotoxicity rating CASOB: 40
[19]; Rate 250 g ai/ha
  Post-emerge Herbicidal Activity, phytotoxicity rating CASOB: 90
[20]; Rate 63 g ai/ha
  Post-emerge Herbicidal Activity, phytotoxicity rating AMARE: 100
[20]; Rate 250 g ai/ha
  Post-emerge Herbicidal Activity, phytotoxicity rating AMARE: 100
[21]; 63 g ai/ha
  Pre-emerge phytotoxicity rating, crop damage RICE: 10
[21]; 250 g ai/ha
  Pre-emerge phytotoxicity rating, crop damage RICE: 40
[22]; 63 g ai/ha
  Pre-emerge phytotoxicity rating, crop damage CORN: 0
[22]; 250 g ai/ha
  Pre-emerge phytotoxicity rating, crop damage CORN: 20
[23]; 63 g ai/ha
  Pre-emerge herbicidal activity, phytotoxicity rating AMARE: 100
[23]; 250 g ai/ha
  Pre-emerge herbicidal activity, phytotoxicity rating AMARE: 100

## COc1c(Cl)cc(F)c(-n2c(=O)cc(C(F)(F)F)n(C)c2=O)c1CC(C)(Cl)C(=O)OC(C(F)(F)F)C(F)(F)F (centres unmarked) [14-46]
[1]; 63 g ai/ha
  Pre-emerge herbicidal activity, phytotoxicity rating ABUTH: 80
[1]; 250 g ai/ha
  Pre-emerge herbicidal activity, phytotoxicity rating ABUTH: 100
[2]; 63 g ai/ha
  Pre-emerge herbicidal activity, phytotoxicity rating DIGSA: 0
[2]; 250 g ai/ha
  Pre-emerge herbicidal activity, phytotoxicity rating DIGSA: 0
[3]; 63 g ai/ha
  Pre-emerge herbicidal activity, phytotoxicity rating SORHA: 0
[3]; 250 g ai/ha
  Pre-emerge herbicidal activity, phytotoxicity rating SORHA: 0
[4]; 63 g ai/ha
  Pre-emerge herbicidal activity, phytotoxicity rating ECHCG: 0
[4]; 250 g ai/ha
  Pre-emerge herbicidal activity, phytotoxicity rating ECHCG: 0
[5]; 63 g ai/ha
  Pre-emerge herbicidal activity, phytotoxicity rating AMBEL: 50
[5]; 250 g ai/ha
  Pre-emerge herbicidal activity, phytotoxicity rating AMBEL: 100
[6]; 63 g ai/ha
  Pre-emerge herbicidal activity, phytotoxicity rating CHEAL: 0
[6]; 250 g ai/ha
  Pre-emerge herbicidal activity, phytotoxicity rating CHEAL: 90
[7]; 63 g ai/ha
  Pre-emerge herbicidal activity, phytotoxicity rating IPOHE: 0
[7]; 250 g ai/ha
  Pre-emerge herbicidal activity, phytotoxicity rating IPOHE: 0
[8]; 63 g ai/ha
  Pre-emerge herbicidal activity, phytotoxicity rating SETVI: 0
[8]; 250 g ai/ha
  Pre-emerge herbicidal activity, phytotoxicity rating SETVI: 0
[9]; 63 g ai/ha
  Pre-emerge herbicidal activity, phytotoxicity rating CASOB: 0
[9]; 250 g ai/ha
  Pre-emerge herbicidal activity, phytotoxicity rating CASOB: 0
[10]; Rate 63 g ai/ha
  Post-emerge phytotoxicity rating RICE (crop damage): 60
[10]; Rate 250 g ai/ha
  Post-emerge phytotoxicity rating RICE (crop damage): 100
[11]; Rate 63 g ai/ha
  Post-emerge phytotoxicity rating CORN (crop damage): 95
[11]; Rate 250 g ai/ha
  Post-emerge phytotoxicity rating CORN (crop damage): 100
[12]; Rate 63 g ai/ha
  Post-emerge Herbicidal Activity, phytotoxicity rating ABUTH: 100
[12]; Rate 250 g ai/ha
  Post-emerge Herbicidal Activity, phytotoxicity rating ABUTH: 100
[13]; Rate 63 g ai/ha
  Post-emerge Herbicidal Activity, phytotoxicity rating DIGSA: 80
[13]; Rate 250 g ai/ha
  Post-emerge Herbicidal Activity, phytotoxicity rating DIGSA: 100
[14]; Rate 63 g ai/ha
  Post-emerge Herbicidal Activity, phytotoxicity rating SORHA: 80
[14]; Rate 250 g ai/ha
  Post-emerge Herbicidal Activity, phytotoxicity rating SORHA: 90
[15]; Rate 63 g ai/ha
  Post-emerge Herbicidal Activity, phytotoxicity rating ECHCG: 100
[15]; Rate 250 g ai/ha
  Post-emerge Herbicidal Activity, phytotoxicity rating ECHCG: 100
[16]; Rate 63 g ai/ha
  Post-emerge Herbicidal Activity, phytotoxicity rating CHEAL: 100
[16]; Rate 250 g ai/ha
  Post-emerge Herbicidal Activity, phytotoxicity rating CHEAL: 100
[17]; Rate 63 g ai/ha
  Post-emerge Herbicidal Activity, phytotoxicity rating IPOHE: 100
[17]; Rate 250 g ai/ha
  Post-emerge Herbicidal Activity, phytotoxicity rating IPOHE: 100
[18]; Rate 63 g ai/ha
  Post-emerge Herbicidal Activity, phytotoxicity rating SETVI: 90
[18]; Rate 250 g ai/ha
  Post-emerge Herbicidal Activity, phytotoxicity rating SETVI: 100
[19]; Rate 63 g ai/ha
  Post-emerge Herbicidal Activity, phytotoxicity rating CASOB: 60
[19]; Rate 250 g ai/ha
  Post-emerge Herbicidal Activity, phytotoxicity rating CASOB: 90
[20]; Rate 63 g ai/ha
  Post-emerge Herbicidal Activity, phytotoxicity rating AMARE: 95
[20]; Rate 250 g ai/ha
  Post-emerge Herbicidal Activity, phytotoxicity rating AMARE: 100
[21]; 63 g ai/ha
  Pre-emerge phytotoxicity rating, crop damage RICE: 0
[21]; 250 g ai/ha
  Pre-emerge phytotoxicity rating, crop damage RICE: 30
[22]; 63 g ai/ha
  Pre-emerge phytotoxicity rating, crop damage CORN: 0
[22]; 250 g ai/ha
  Pre-emerge phytotoxicity rating, crop damage CORN: 0
[23]; 63 g ai/ha
  Pre-emerge herbicidal activity, phytotoxicity rating AMARE: 60
[23]; 250 g ai/ha
  Pre-emerge herbicidal activity, phytotoxicity rating AMARE: 95
